ChEMBL document CHEMBL1122248, “Cloxacepride and related compounds: a new series of orally active antiallergic compounds” (1983)

Experiments:
Rattus norvegicus [1] = test: PCA activity of compound in rat at 100 mg/kg dose; assay type: functional
Rattus norvegicus [2] = test: Tested for PCA activity in rat at 200 mg/kg dose; assay type: functional
Rattus norvegicus [3] = test: Tested for anti PCA- activity when compound was administered orally 60 min before challenge in exp2; assay type: functional; details: po
Rattus norvegicus [4] = test: Tested for anti PCA- activity when compound was administered orally 60 min before challenge in exp1; assay type: functional; details: po
Rattus norvegicus [5] = test: Tested for PCA activity of compound in rat at 50 mg/kg dose; assay type: functional
Rattus norvegicus [6] = test: Tested for anti PCA- activity when compound was administered perorally 60 min before challenge in; assay type: functional; details: po
Rattus norvegicus [7] = test: Tested for PCA activity of compound in rat at 25 mg/kg dose; assay type: functional
Rattus norvegicus [8] = test: Tested for antigenic challenge time, time measured was immediate when compound was administered before challenge in rat; Immed = Immediate; assay type: functional, organism-based
Rattus norvegicus [9] = test: Tested for PCA activity of compound in rat at 1.0 mg/kg intravenous dose; assay type: functional
Rattus norvegicus [10] = test: Tested for PCA activity of compound in rat at 5 mg/kg intravenous dose; assay type: functional
Rattus norvegicus [11] = test: Tested for antigenic challenge time, time measured was immediate when compound was administered before challenge in rat;Immed = Immediate; assay type: functional, organism-based
Rattus norvegicus [12] = test: Tested for PCA activity of compound in rat at 2.5 mg/kg intravenous dose; assay type: functional
Rattus norvegicus [13] = test: Tested for anti PCA- activity when compound was administered intravenously 60 min before challenge in rat; assay type: functional; details: iv
Rattus norvegicus [14] = test: Tested for antigenic challenge time, time measured was immediate when compound was administered before challenge in rat; immediate; assay type: functional, organism-based
Rattus norvegicus [15] = test: Tested for PCA activity of compound in rat at 10 mg/kg intravenous dose; assay type: functional
Rattus norvegicus [16] = test: Tested for PCA activity of compound in rat at 50 mg/kg dose at 60 min challenge time.; assay type: functional; details: 1 h

Row | Compound | inhibition in vivo at 100 mg/kg (Rattus norvegicus [1]) | inhibition in vivo at 200 mg/kg (Rattus norvegicus [2]) | other results
1 | COc1cc(NC(=O)COc2ccc(Cl)cc2)c(Cl)cc1C(=O)N1CCN(C(c2ccccc2)c2ccccc2)CC1 | 0% | – | –
2 | CCN(CC)CCNC(=O)c1cc(Cl)c(NC(=O)CNc2ccccc2)cc1OC | 5% | – | –
3 | CCN(CC)CCNC(=O)c1ccc(NC(=O)COc2ccc(Cl)cc2)c(Cl)c1.O=C(O)CC(O)(CC(=O)O)C(=O)O | 14% | 0% | –
4 | CCN(CC)CCNC(=O)c1cc(Cl)c(NC(=O)COc2ccccc2)cc1OC | 47% | 67% | –
5 | CCN(CC)CCNC(=O)c1cc(Cl)c(NC(=O)COc2ccc(OC)cc2)cc1OC.Cl | 53% | 33% | –
6 | CCN(CC)CCNC(=O)c1cc(Cl)ccc1NC(=O)COc1ccc(F)cc1 | 0% | – | –
7 | CCN(CC)CCNC(=O)c1cc(Cl)c(NC(=O)C(C)Oc2ccc(Cl)cc2)cc1OC.Cl (stereo not drawn) | 62% | 32% | ED50 (Rattus norvegicus [3]): 60.9 mg/kg; ED50 (Rattus norvegicus [4]): 64.5 mg/kg; inhibition in vivo at 50 mg/kg (Rattus norvegicus [5]): 41%
8 | COc1cc(NC(=O)COc2ccc(Cl)cc2)c(Cl)cc1C(=O)O | – | 0% | –
9 | CCN(CC)CCNC(=O)c1cc(Cl)c(NC(=O)COc2ccc(Cl)cc2Cl)cc1OC | – | 0% | –
10 | CCN(CC)CCNC(=O)c1cc(Cl)c(NC(=O)COc2cccc(Cl)c2Cl)cc1OC | – | 0% | –
11 | CCN(CC)CCNC(=O)c1cccc(NC(=O)COc2ccc(Cl)cc2)c1 | 7% | – | –
12 | Cn1c(=O)c2nc[nH]c2n(C)c1=O.O [THEOPHYLLINE] | – | – | ED50 (Rattus norvegicus [6]): 47.2 mg/kg
13 | CCN(CC)CCNC(=O)c1cc(Cl)ccc1NC(=O)COc1ccc(Cl)cc1 | 0% | – | –
14 | CCN1CCCC1CNC(=O)c1cc(Cl)c(NC(=O)COc2ccc(Cl)cc2)cc1OC (stereo not drawn) | – | – | inhibition in vivo at 25 mg/kg (Rattus norvegicus [7]): 53%; inhibition in vivo at 50 mg/kg (Rattus norvegicus [5]): 60%
15 | CCN(CC)CCNC(=O)c1cc(Cl)c(NC(=O)COc2ccccc2Cl)cc1OC | – | 0% | –
16 | CCN(CC)CCNC(=O)c1ccc(NC(=O)COc2ccc(Cl)cc2)c(OC)c1 | – | 20% | –
17 | CCN(CC)CCNC(=O)c1cc(NC(=O)COc2ccc(Cl)cc2)ccc1OC(C)=O | 0% | – | –
18 | CCN(CC)CCNC(=O)c1cc(Cl)c(NC(=O)COc2ccc(C)cc2)cc1OC | 22% | – | –
19 | CCN(CC)CCNC(=O)c1cc(Cl)c(NC(=O)CSc2ccccc2)cc1OC | 26% | – | –

Row | Compound | inhibition in vivo at 100 mg/kg (Rattus norvegicus [1]) | inhibition in vivo at 200 mg/kg (Rattus norvegicus [2]) | other results
20 | COc1cc(NC(=O)COc2ccc(Cl)cc2)c(Cl)cc1C(=O)N1CCN(C)CC1 | 0% | – | –
21 | CCN(CC)CCNC(=O)c1cc(Cl)c(NC(=O)COc2ccc(Cl)c(Cl)c2)cc1OC.Cl | 0% | 0% | –
22 | CCN(CC)CCNC(=O)c1cc(Cl)c(NC(=O)C(Oc2ccc(Cl)cc2)Oc2ccc(Cl)cc2)cc1OC | – | 0% | –
23 | O=C([O-])c1cc(=O)c2c(OCC(O)COc3cccc4oc(C(=O)[O-])cc(=O)c34)cccc2o1.[Na+].[Na+] [CROMOLYN SODIUM] | – | – | Challenge time (Rattus norvegicus [8]): Immed; inhibition in vivo at 1 mg/kg (Rattus norvegicus [9]): 28%; inhibition in vivo at 5 mg/kg (Rattus norvegicus [10]): 78%; Challenge time (Rattus norvegicus [11]): Immed; inhibition in vivo at 2.5 mg/kg (Rattus norvegicus [12]): 58%; ED50 (Rattus norvegicus [13]): 2 mg/kg
24 | CCN(CC)CCNC(=O)c1cc(Cl)c(NC(=O)COc2cccc(C(F)(F)F)c2)cc1OC.Cl | 53% | 40% | –
25 | CCN(CC)CCCNC(=O)c1cc(Cl)c(NC(=O)COc2ccc(Cl)cc2)cc1OC | – | 20% | –
26 | COc1cc(NC(=O)COc2ccc(Cl)cc2)c(Cl)cc1NCCN1CCCC1 | – | 20% | –
27 | CCN(CC)CCNC(=O)c1cc(Cl)c(N)cc1OC [METOCLOPRAMIDE] | 14% | – | Challenge time (Rattus norvegicus [14]): Immediate; inhibition in vivo at 10 mg/kg (Rattus norvegicus [15]): 84%
28 | O=C(O)c1ccc2oc3ccc(OCCO)cc3c(=O)c2c1 | 71% | – | –
29 | CCN(CC)CCNC(=O)c1cc(Cl)c(NC(=O)COc2ccc(Cl)cc2)cc1OC.Cl [CLOXACEPRIDE HYDROCHLORIDE] | 69% | 75% | ED50 (Rattus norvegicus [3]): 46.9 mg/kg; ED50 (Rattus norvegicus [4]): 49 mg/kg; inhibition in vivo at 50 mg/kg (Rattus norvegicus [16]): 49%
30 | CCOC(=O)c1cc(Cl)c(NC(=O)COc2ccc(Cl)cc2)cc1OC | 93% | 20% | –
31 | CCN(CC)CCNC(=O)c1cc(Cl)c(NC(=O)COc2ccc(F)cc2)cc1OC | 33% | 67% | –
32 | COc1cc(NC(=O)COc2ccc(Cl)cc2)c(Cl)cc1C(=O)N1CCN(C/C=C/c2ccccc2)CC1 | 0% | – | –
33 | COc1cc(NC(=O)COc2ccc(Cl)cc2)c(Cl)cc1C(=O)NCc1cccnc1 | – | 20% | –
34 | CCN(CC)CCNC(=O)c1ccc(NC(=O)COc2ccccc2)c(OC)c1 | – | 20% | –
35 | CCN(CC)CCNC(=O)c1ccc(NC(=O)COc2ccc(Cl)cc2)cc1 | – | 0% | –
36 | CCN(CC)CCNC(=O)c1ccc(Cl)c(NC(=O)COc2ccc(Cl)cc2)c1 | 7% | – | –
37 | CCN(CC)CCNC(=O)c1cc(Cl)c(NC(=O)COc2ccc(I)cc2)cc1OC | 0% | 27% | –
38 | CCN(CC)CCNC(=O)c1cc(Cl)c(NC(=O)C(C)(C)Oc2ccc(Cl)cc2)cc1OC.Cl | 0% | 20% | –
